Source: patent publication US10034883B2, “Mesoporous dosage forms for poorly soluble drugs” (SIEGFRIED AG, priority 2013, dated 2018)

Assay: First trials dissolving rivaroxaban into Soluplus polymer
Format: physicochemical
Details: total API/Polymer ratio=0.1

Structure (SMILES): O=C(NC[C@H]1CN(c2ccc(N3CCOCC3=O)cc2)C(=O)O1)c1ccc(Cl)s1 [rivaroxaban]
- maximum amount of rivaroxaban dissolvable into Soluplus: ≤ 10%
